Structures are written as SMILES. Where only a bound is given, the exact number is not on record here.

Holding throughout (format): cell-based
Series [1] has as its system recombinant NL4-3 virus (nef section replaced with Renilla luciferase gene) in MT-2 cells. Kind of series: HIV cell culture assay (antiviral activity, luciferase readout). Conditions: serial dilutions of compound. In a few lines:
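EC50 was derived by median-effect curve fitting of luciferase activity. The signal comes from MT-2 cells infected for 4–5 days with 293T-produced NL4-3 reporter virus, nef partly replaced by Renilla luciferase, in the presence of serially diluted compound.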

For series [2], the system named is uninfected MT2 cells. Kind of series: Compound cytotoxicity, XTT-based colorimetric assay. Particulars: day 4, XTT. In a few lines: (§1)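 Run under the antiviral-assay protocol but without virus. Viability was read on day 4 and CC50 values were derived from the readout.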
Test in series [3]: as above
Particulars: human, uninfected MT2 cells, day 4, XTT. In a few lines: as §1
For orientation: Tetrazolium dyes change colour on reduction, which living cells bring about.

Setting [4] is: Renilla, NL43, MT-2 cells infected for 4-5 days with recombinant NL4-3 Renilla luciferase virus.

The EC50 is the concentration needed to bring the measured effect to its halfway point. Usually CC50 stands for the concentration that lowers cell viability or growth by half. A lower CC50 goes with greater toxicity to the cells. `Cn1nc(NS(C)(=O)=O)c2c(Cl)ccc(-n3c([C@H](Cc4cc(F)cc(F)c4)NC(=O)Cn4ccc(C5CC5)n4)nc4cc(-c5ccccc5F)ccc4c3=O)c21` (single isomer, unassigned) [Example 4]: in series [1] (MT-2 cells infected for 4-5 days with recombinant NL4-3 Renilla luciferase virus), the EC50 was found to be 1.1 nM. The same compound displayed a CC50 in series [2] of over 1 µM.
As for `O=C(Cn1nc(C(F)F)c2c1C(F)(F)[C@@H]1C[C@H]21)N[C@@H](Cc1cc(F)cc(F)c1)c1nc2cc(-c3ccccc3F)ccc2c(=O)n1-c1ccc(Cl)c2c(NS(=O)(=O)C3CC3)nn(CC(F)F)c12` (atropisomer, axis not shown; (aR)) [Example 115, N-((S)-1-(3-(4-chloro-3-(cyclopropanesulfonamido)-1-(2,2-difluoroethyl)-1H-indazol-7-yl)-7-(2-fluorophenyl)-4-oxo-3,4-dihydroquinazolin-2-yl)-2-(3,5-difluorophenyl)ethyl)-2-((3bS,4aR)-3-(difluoromethyl)-5,5-difluoro-3b,4,4a,5-tetrahydro-1H-cyclopropa[3,4]cyclopenta[1,2-c]pyrazol-1-yl)acetamide], the concentration giving a half-maximal response (EC50) in series [1] (setting [4]) is 0.469 nM. The cytotoxic concentration (CC50) in series [2] was over 10 µM.
With `Cn1nc(NS(C)(=O)=O)c2c(Cl)ccc(-n3c([C@H](Cc4cc(F)cc(F)c4)NC(=O)Cn4nc(C(F)F)c5c4C(F)(F)[C@@H]4C[C@H]54)nc4cc(-c5cncnc5)ccc4c3=O)c21` (atropisomer, axis not shown; (aR)) [Example 84, N-((S)-1-(3-(4-chloro-1-methyl-3-(methylsulfonamido)-1H-indazol-7-yl)-4-oxo-7-(pyrimidin-5-yl)-3,4-dihydroquinazolin-2-yl)-2-(3,5-difluorophenyl)ethyl)-2-((3bS,4aR)-3-(difluoromethyl)-5,5-difluoro-3b,4,4a,5-tetrahydro-1H-cyclopropa[3,4]cyclopenta[1,2-c]pyrazol-1-yl)acetamide], the EC50 in series [1] (setting [4]) came out at 0.068 nM. Besides, in series [3], the half-maximal cytotoxic concentration (CC50) at 4 day was over 1000 nM.
On to `Cn1nc(NS(C)(=O)=O)c2c(Cl)ccc(-n3c([C@H](Cc4cc(F)cc(F)c4)NC(=O)Cn4nc(C(F)F)c5c4C(F)(F)[C@@H]4C[C@H]54)nc4cc(-c5ccc(Oc6ccccc6)cc5)ccc4c3=O)c21` (atropisomer, axis not shown; (aR)) [Example 14, N-((S)-1-(3-(4-chloro-1-methyl-3-(methylsulfonamido)-1H-indazol-7-yl)-4-oxo-7-(4-phenoxyphenyl)-3,4-dihydroquinazolin-2-yl)-2-(3,5-difluorophenyl)ethyl)-2-((3bS,4aR)-3-(difluoromethyl)-5,5-difluoro-3b,4,4a,5-tetrahydro-1H-cyclopropa[3,4]cyclopenta[1,2-c]pyrazol-1-yl)acetamide], for which the EC50 in series [1] (setting [4]) turned out to be 9.8 nM. The same compound registered a CC50 at 4 day in series [3] of over 1000 nM.
The matching figures for `CCCS(=O)(=O)c1cccc(-c2ccc3c(=O)n(-c4ccc(Cl)c5c(NS(C)(=O)=O)nn(C)c45)c([C@H](Cc4cc(F)cc(F)c4)NC(=O)Cn4nc(C(F)F)c5c4C(F)(F)[C@@H]4C[C@H]54)nc3c2)c1` (atropisomer, axis not shown; (aR)) [Example 122, N-((S)-1-(3-(4-chloro-1-methyl-3-(methylsulfonamido)-1H-indazol-7-yl)-4-oxo-7-(3-(propylsulfonyl)phenyl)-3,4-dihydroquinazolin-2-yl)-2-(3,5-difluorophenyl)ethyl)-2-((3bS,4aR)-3-(difluoromethyl)-5,5-difluoro-3b,4,4a,5-tetrahydro-1H-cyclopropa[3,4]cyclopenta[1,2-c]pyrazol-1-yl)acetamide]: 0.17 nM and over 500 nM.
In the same order, the values of `Cc1ncc(-c2ccc3c(=O)n(-c4ccc(Cl)c5c(NS(=O)(=O)C6CC6)nn(CC(F)F)c45)c([C@H](Cc4cc(F)cc(F)c4)NC(=O)Cn4nc(C(F)F)c5c4C(F)(F)[C@@H]4C[C@H]54)nc3c2)cn1` [Example 157, N-((S)-1-(3-(4-chloro-3-(cyclopropanesulfonamido)-1-(2,2-difluoroethyl)-1H-indazol-7-yl)-7-(2-methylpyrimidin-5-yl)-4-oxo-3,4-dihydroquinazolin-2-yl)-2-(3,5-difluorophenyl)ethyl)-2-((3bS,4aR)-3-(difluoromethyl)-5,5-difluoro-3b,4,4a,5-tetrahydro-1H-cyclopropa[3,4]cyclopenta[1,2-c]pyrazol-1-yl)acetamide] are 0.06 nM and over 500 nM.
The matching figures for `Cn1nc(NS(C)(=O)=O)c2c(Cl)ccc(-n3c([C@H](Cc4cc(F)cc(F)c4)NC(=O)Cn4nc(C(F)F)c5c4C(F)(F)[C@@H]4C[C@H]54)nc4cc(-c5ccccc5)ccc4c3=O)c21` [Example 195, N-((S)-1-(3-(4-chloro-1-methyl-3-(methylsulfonamido)-1H-indazol-7-yl)-4-oxo-7-phenyl-3,4-dihydroquinazolin-2-yl)-2-(3,5-difluorophenyl)ethyl)-2-((3bS,4aR)-3-(difluoromethyl)-5,5-difluoro-3b,4,4a,5-tetrahydro-1H-cyclopropa[3,4]cyclopenta[1,2-c]pyrazol-1-yl)acetamide]: 0.36 nM and over 1000 nM.
As for `COc1cccc(-c2ccc3c(=O)n(-c4ccc(S(=O)(=O)N5CCOCC5)cc4)c([C@H](Cc4cc(F)cc(F)c4)NC(=O)Cn4ccc(C5CC5)n4)nc3c2)n1` [Example 55, (S)-2-(3-cyclopropyl-1H-pyrazol-1-yl)-N-(2-(3,5-difluorophenyl)-1-(7-(6-methoxypyridin-2-yl)-3-(4-(morpholinosulfonyl)phenyl)-4-oxo-3,4-dihydroquinazolin-2-yl)ethyl)acetamide], in series [1] (setting [4]), the 50% effective concentration (EC50) came out at 8.7 nM. In series [3], this compound came in with a 50% cytotoxic concentration (CC50) at 4 day of over 1000 nM.
The matching figures for `CC(C)Oc1ccccc1-c1ccc2c(=O)n(-c3ccc(Cl)c4c(NS(C)(=O)=O)nn(C)c34)c([C@H](Cc3cc(F)cc(F)c3)NC(=O)Cn3nc(C(F)F)c4c3C(F)(F)[C@@H]3C[C@H]43)nc2c1` [Example 181, N-((S)-1-(3-(4-chloro-1-methyl-3-(methylsulfonamido)-1H-indazol-7-yl)-7-(2-isopropoxyphenyl)-4-oxo-3,4-dihydroquinazolin-2-yl)-2-(3,5-difluorophenyl)ethyl)-2-((3bS,4aR)-3-(difluoromethyl)-5,5-difluoro-3b,4,4a,5-tetrahydro-1H-cyclopropa[3,4]cyclopenta[1,2-c]pyrazol-1-yl)acetamide]: 0.71 nM and over 500 nM.
In the same order, the values of `CNC(=O)c1ccc(-c2ccc3c(=O)n(-c4ccc(Cl)c5c(NS(C)(=O)=O)nn(C)c45)c([C@H](Cc4cc(F)cc(F)c4)NC(=O)Cn4nc(C(F)F)c5c4C(F)(F)[C@@H]4C[C@H]54)nc3c2)cc1` (atropisomer, axis not shown; (aR)) [Example 62, 4-(3-(4-chloro-1-methyl-3-(methylsulfonamido)-1H-indazol-7-yl)-2-((S)-1-(2-((3bS,4aR)-3-(difluoromethyl)-5,5-difluoro-3b,4,4a,5-tetrahydro-1H-cyclopropa[3,4]cyclopenta[1,2-c]pyrazol-1-yl)acetamido)-2-(3,5-difluorophenyl)ethyl)-4-oxo-3,4-dihydroquinazolin-7-yl)-N-methylbenzamide] are 0.48 nM and over 1000 nM.
The matching figures for `COc1c(F)cc(-c2ccc3c(=O)n(-c4ccc(Cl)c5c(NS(C)(=O)=O)nn(C)c45)c([C@H](Cc4cc(F)cc(F)c4)NC(=O)Cn4nc(C(F)F)c5c4C(F)(F)[C@@H]4C[C@H]54)nc3c2)cc1F` (atropisomer, axis not shown; (aR)) [Example 70, N-((S)-1-(3-(4-chloro-1-methyl-3-(methylsulfonamido)-1H-indazol-7-yl)-7-(3,5-difluoro-4-methoxyphenyl)-4-oxo-3,4-dihydroquinazolin-2-yl)-2-(3,5-difluorophenyl)ethyl)-2-((3bS,4aR)-3-(difluoromethyl)-5,5-difluoro-3b,4,4a,5-tetrahydro-1H-cyclopropa[3,4]cyclopenta[1,2-c]pyrazol-1-yl)acetamide]: 0.92 nM and over 1000 nM.
For the compound `O=C(Cn1ccc(C2CC2)n1)N[C@@H](Cc1cc(F)cc(F)c1)c1nc2cc(-c3ccccc3)ccc2c(=O)n1-c1ccc(S(=O)(=O)N2CCOCC2)cc1` [Example 144, (S)-2-(3-cyclopropyl-1H-pyrazol-1-yl)-N-(2-(3,5-difluorophenyl)-1-(3-(4-(morpholinosulfonyl)phenyl)-4-oxo-7-phenyl-3,4-dihydroquinazolin-2-yl)ethyl)acetamide], the EC50 in series [1] (setting [4]) is 16 nM. This compound displayed a CC50 at 4 day in series [3] of over 500 nM.
For `CC(C)n1ccc(CC(=O)N[C@@H](Cc2cc(F)cc(F)c2)c2nc3cc(-c4ccccc4F)ccc3c(=O)n2-c2ccc(Cl)c3c(NS(C)(=O)=O)nn(C)c23)n1` [Example 155, (S)-N-(1-(3-(4-chloro-1-methyl-3-(methylsulfonamido)-1H-indazol-7-yl)-7-(2-fluorophenyl)-4-oxo-3,4-dihydroquinazolin-2-yl)-2-(3,5-difluorophenyl)ethyl)-2-(1-isopropyl-1H-pyrazol-3-yl)acetamide], in series [1] (setting [4]), the half-maximal effective concentration (EC50) was determined as 0.76 nM. This compound came in with a 50% cytotoxic concentration (CC50) at 4 day in series [3] of over 1000 nM.
Turning to `CCS(=O)(=O)c1ccccc1-c1ccc2c(=O)n(-c3ccc(Cl)c4c(NS(C)(=O)=O)nn(C)c34)c([C@H](Cc3cc(F)cc(F)c3)NC(=O)Cn3nc(C(F)F)c4c3C(F)(F)[C@@H]3C[C@H]43)nc2c1` (atropisomer, axis not shown; (aR)) [Example 119, N-((S)-1-(3-(4-chloro-1-methyl-3-(methylsulfonamido)-1H-indazol-7-yl)-7-(2-(ethylsulfonyl)phenyl)-4-oxo-3,4-dihydroquinazolin-2-yl)-2-(3,5-difluorophenyl)ethyl)-2-((3bS,4aR)-3-(difluoromethyl)-5,5-difluoro-3b,4,4a,5-tetrahydro-1H-cyclopropa[3,4]cyclopenta[1,2-c]pyrazol-1-yl)acetamide], the EC50 in series [1] (setting [4]) amounted to 0.1 nM. Also, the CC50 at 4 day in series [3] is over 500 nM.
